# Experimental data: paper PMC12748266, “Testing antimicrobial peptides inhibiting protein synthesis in living E. coli and K. pneumoniae using bio-orthogonal non-canonical amino-acid tagging” (Frontiers in Microbiology, 2025)
# No end group written: not given here.
# System: K. pneumoniae ribosomes
# Assay: In vitro translation assay (PURExpress, firefly luciferase) with purified ribosomes
# Type: biochemical, K. pneumoniae ATCC 13883
# Details: peptide at 5 μM, 30 min, 32 °C, luciferase luminescence, water control = 100%
# Method: The ribosomes used in this study were purified as described previously ([Di Stasi et al., 2025]). Briefly, to purify the 70S ribosomes of ESKAPE pathogens, the bacterial strains E. faecium ATCC 19434 S. aureus ATCC 25923, K. pneumoniae ATCC 13883, A. baumannii ATCC 19606, P. aeruginosa ATCC 27853 and E. cloacae ATCC 13047 were grown in 2 L of Luria-Bertani (LB) medium, at 37 °C, until the mid-log phase was reached. After centrifugation at 7,000 rpm (12,000 × g) for 15 min at 20 °C (JLA rotor 8.1000), the bacterial pellet was resuspended in 50 mL of saline (0.9% w/v NaCl) and re-centrifuged at 15,000 rpm (27,000 × g) for 10 min at 20 °C (JA rotor 25.50). […] Finally, the solution was cleared of the last remaining impurities by centrifugation at 15,000 rpm (18,000 × g) for 15 min at 4 °C, and the ribosomes subjected to quantification by Nanodrop (A260). […]
# The in vitro translation assay was performed by using the Δ ribosome from the E. coli PURExpress system New England Biolabs (NEB), as reported previously ([Di Stasi et al., 2025]; [Raulf et al., 2025]). […] Finally, 40 μL of luciferase assay substrate solution were added to the wells (Promega, E1501), and the luminescence measured using a plate reader (Tecan Infinite 200 PRO). The negative control of the test was nuclease-free water in place of the antibiotic, whose values were used to normalize the absolute luminescence values of the samples. […]
sequence,measurement,value
RRIRPRPPRLPRPRPR [Bac7(1–16)],Inhibition of in vitro protein synthesis,90%
